Measured values: patent US20130123271A1, “HETEROCYCLIC COMPOUNDS, THEIR PREPARATION AND THERAPEUTIC APPLICATION” (FOVEA PHARMACEUTICALS, priority 2010, published 2013)

target: h Src (Homo sapiens, UniProt P12931); assay: LC3000 Src assay (off-chip incubation mobility-shift kinase assay, Caliper LabChip); assay type: biochemical; settings: ATP at KM apparent
Experimental: The screening and profiling experiments described here were performed using Caliper Life Sciences' proprietary LabChip™ technology. Caliper LC3000 and EZ Reader II instruments are widely used throughout the drug discovery process for assay development, primary screening, selectivity screening, generation of Structure-Activity Relationships (SARs) and Mechanism of Action (MOA) studies. The LabChip™ technology is particularly well suited for enzymatic ‘targets’ such as kinases, proteases, phosphatases, histone deacetylases (HDAC), phosphodiesterases (PDE), and acyl-transferases. The key benefit of the technology is the separation and direct measurement of substrates and products, which allows for higher signal-to-noise ratios and fewer false positive/negative results. This direct measurement also allows for the identification and elimination of enzymatic activities that are not associated with the kinase reaction of interest.
The off-chip incubation mobility-shift kinase assay uses a microfluidic chip to measure the conversion of a fluorescent peptide substrate to a phosphorylated product. The reaction mixture, from a microtiter plate well, is introduced through a capillary sipper onto the chip, where the nonphosphorylated substrate and phosphorylated product are separated by electrophoresis and detected via laser-induced fluorescence. […] The phosphorylated product migrates through the chip faster than the non-phosphorylated substrate, and signals from the two forms of the peptide appear as distinct peaks. Caliper's data analysis software (HTSWA) determines peak heights, from which the ratio of product to the peak sum P/(P+S) and percent (%) conversion is calculated. This value is used to compare compound wells to control wells present on the plate, and thereby determine the % inhibition values for the compound. The formula used to calculate % inhibition is as follows, where C100% is the average % conversion of the 100% activity wells and C0% is the average % conversion of the 0% activity wells:
(1-(%conversionofsample—C0%)/(C100%−C0%))*100
Compounds were dissolved in 100% DMSO and diluted to 25× the final desired screening concentration. Serial dilutions were performed to obtain the concentrations specified for particular studies. One μl of each concentration was transferred, in duplicate, to a 384-well Greiner microtiter plate. Generally, 12 μL of enzyme buffer containing purified kinase (various suppliers), 100 mM HEPES, pH 7.5, 1 mM DTT (Calbiochem, 2333153), 10 mM MgCl2 (Sigma, M-1028) or 10 mM MnCl2 (Sigma, M-1787) (assay specific), and 0.002% Brij-35 (Sigma, B4184) was added to each well. Compound and enzyme were allowed to pre-incubate for 15 minutes. 12 μL of peptide/ATP buffer containing 100 mM HEPES, pH 7.5, 1.5 μM fluorescein-labeled peptide (specific to kinase of interest), ATP (at KM apparent, Sigma, A9187), and 0.002% Brij-35 was then added to each well to initiate the reaction. Generally, reactions were incubated for 1-1.5 hours at room temperature to obtain adequate (15-40%) conversion of peptide to phosphorylated product in the linear range of the reaction. Reactions were terminated with the addition of 45 μL of Stop Buffer (containing 20 mM EDTA). Plates were then read on the LabChip 3000 using a 12-sipper LabChip. % conversion values and % inhibition values were obtained as described and IC50 curves of compounds were generated using Graphpad Prism Version 4 or 5.01. A nonlinear curve fit using the sigmoidal dose response—variable slope fit was used to graph IC50 curves and determine IC50 values and hillslopes.

Chain of h Src (P12931 whole entry): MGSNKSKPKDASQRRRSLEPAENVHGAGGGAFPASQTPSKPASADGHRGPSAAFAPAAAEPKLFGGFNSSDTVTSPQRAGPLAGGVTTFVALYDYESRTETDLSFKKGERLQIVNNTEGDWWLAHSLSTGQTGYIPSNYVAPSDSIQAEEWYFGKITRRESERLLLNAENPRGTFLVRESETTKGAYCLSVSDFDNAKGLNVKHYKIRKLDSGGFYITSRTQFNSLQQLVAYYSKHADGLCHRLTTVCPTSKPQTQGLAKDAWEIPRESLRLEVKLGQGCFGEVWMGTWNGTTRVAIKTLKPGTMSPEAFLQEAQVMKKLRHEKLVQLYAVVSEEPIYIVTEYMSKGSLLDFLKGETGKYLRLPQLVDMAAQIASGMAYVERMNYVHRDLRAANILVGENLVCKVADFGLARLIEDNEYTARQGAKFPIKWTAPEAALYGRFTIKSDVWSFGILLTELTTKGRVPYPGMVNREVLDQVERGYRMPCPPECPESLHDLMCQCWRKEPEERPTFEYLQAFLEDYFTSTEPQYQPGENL

SMILES | IC50 [nM]
OCCn1cnc2ccc(Nc3nc4ccc(-c5cc(O)ccc5Cl)cn4n3)cc21 [Compound 30, 4-Chloro-3-{2-[3-(2-hydroxy-ethyl)-3H-benzoimidazol-5-ylamino]-[1,2,4]triazolo[1,5-a]pyridin-6-yl}-phenol] | 7
Oc1ccc(Cl)c(-c2ccc3nc(Nc4ccc5cc[nH]c5c4)ncc3c2)c1 [Compound 42, 4-Chloro-3-[2-(1 H-indol-6-ylamino)-quinazolin-6-yl]-phenol] | 100
OCc1cncc(Nc2ncc3cc(-c4cc(O)ccc4Cl)ccc3n2)c1 [Compound 21, 4-Chloro-3-[2-(5-hydroxymethyl-pyridin-3-ylamino)-quinazolin-6-yl]-phenol] | 0.4
Oc1ccc(Cl)c(-c2ccn3nc(Nc4cccnc4)nc3c2)c1 [Compound 31, 4-Chloro-3-[2-(pyridin-3-ylamino)-[1,2,4]triazolo[1,5-a]pyridin-7-yl]-phenol] | 69
COc1cc2nc(Nc3ccc(OCCN4CCCC4)cc3)nn2cc1-c1cc(O)ccc1Cl [Compound 39, 4-Chloro-3-{7-methoxy-2-[4-(2-pyrrolidin-1-yl-ethoxy)-phenylamino]-[1,2,4]triazolo[1,5-a]pyridin-6-yl}-phenol] | 69
OCCN1CCN(c2cc(CO)cc(Nc3nc4ccc(-c5cc(O)ccc5Cl)cn4n3)c2)CC1 [Compound 47, 4-Chloro-3-(2-{3-[4-(2-hydroxy-ethyl)-piperazin-1-yl]-5-hydroxymethyl-phenylamino}-[1,2,4]triazolo[1,5-a]pyridin-6-yl)-phenol] | 1
COc1cc(Nc2nc3ccc(-c4cc(O)ccc4Cl)cn3n2)ccn1 [Compound 20, 4-Chloro-3-[2-(2-methoxy-pyridin-4-ylamino)-[1,2,4]triazolo[1,5-a]pyridin-6-yl]-phenol] | 6
Cc1cc(Nc2ncc3cc(-c4cc(OC(=O)c5ccccc5)ccc4Cl)ccc3n2)cc(N2CCN(CCO)CC2)c1 [Compound 49, Benzoic acid 4-chloro-3-(2-{3-[4-(2-hydroxy-ethyl)-piperazin-1-yl]-5-methyl-phenylamino}-quinazolin-6-yl)-phenyl ester] | 11
Oc1ccc(Cl)c(-c2ccc3nc(Nc4cccnc4)ncc3c2)c1 [Compound 17, 4-Chloro-3-[2-(pyridin-3-ylamino)-quinazolin-6-yl]-phenol] | 2
OCc1cncc(Nc2nc3ccc(-c4cc(O)ccc4Cl)cn3n2)c1 [compound 4, 4-Chloro-3-[2-(5-hydroxymethyl-pyridin-3-ylamino)-[1,2,4]triazolo[1,5-a]pyridin-6-yl]-phenol] | 39
COc1cc(Nc2ncc3cc(-c4cc(O)ccc4Cl)ccc3n2)cc(OC)c1OC [Compound 36, 4-Chloro-3-[2-(3,4,5-trimethoxy-phenylamino)-quinazolin-6-y]-phenol] | 0.5
OCCN1CCN(c2cc(CO)cc(Nc3ncc4cc(-c5cc(O)ccc5Cl)ccc4n3)c2)CC1 [Compound 50, 4-Chloro-3-(2-{3-[4-(2-hydroxy-ethyl)-piperazin-1-yl]-5-hydroxymethyl-phenylamino}-quinazolin-6-yl)-phenol] | 0.2
Oc1ccc(Cl)c(-c2ccc3nc(Nc4ccccn4)nn3c2)c1 [compound 12, 4-Chloro-3-[2-(pyridin-2-ylamino)-[1,2,4]triazolo[1,5-a]pyridin-6-yl]-phenol] | 170
Oc1ccc(Cl)c(-c2ccc3nc(Nc4cncc(OCCN5CCCC5)c4)nn3c2)c1 [Compound 26, 4-Chloro-3-{2-[5-(2-pyrrolidin-1-yl-ethoxy)-pyridin-3-ylamino]-[1,2,4]triazolo[1,5-a]pyridin-6-yl}-phenol] | 14
OCc1ccc(Nc2nc3ccc(-c4cc(O)ccc4Cl)cn3n2)cn1 [compound 14, 4-Chloro-3-[2-(6-hydroxymethyl-pyridin-3-ylamino)-[1,2,4]triazolo[1,5-a]pyridin-6-yl]-phenol] | 47
Oc1ccc(Cl)c(-c2ccc3nc(Nc4ccc5cc[nH]c5c4)nn3c2)c1 [Compound 18, 4-Chloro-3-[2-(1H-indol-6-ylamino)-[1,2,4]triazolo[1,5-a]pyridin-6-yl]-phenol] | 39
OCc1cc(CO)cc(Nc2nc3cc(-c4cc(O)ccc4Cl)ccn3n2)c1 [Compound 34, 3-[2-(3,5-Bis-hydroxymethyl-phenylamino)-[1,2,4]triazolo[1,5-a]pyridin-7-yl]-4-chloro-phenol] | 9
OCCN1CCN(c2cc(Nc3nc4ccc(-c5cc(O)ccc5Cl)cn4n3)ccn2)CC1 [Compound 38, 4-Chloro-3-(2-{2-[4-(2-hydroxy-ethyl)-piperazin-1-yl]-pyridin-4-ylamino}-[1,2,4]triazolo[1,5-a]pyridin-6-yl)-phenol] | 13
Oc1ccc(Cl)c(-c2ccc3nc(Nc4ccnc(OCCN5CCCC5)c4)nn3c2)c1 [Compound 33, 4-Chloro-3-{2-[2-(2-pyrrolidin-1-yl-ethoxy)-pyridin-4-ylamino]-[1,2,4]triazolo[1,5-a]pyridin-6-yl}-phenol] | 29
OCc1ccc(Nc2nc3ccc(-c4cc(O)ccc4Cl)cn3n2)cc1CO [Compound 35, 3-[2-(3,4-Bis-hydroxymethyl-phenylamino)-[1,2,4]triazolo[1,5-a]pyridin-6-yI]-4-chloro-phenol] | 34
[O-][N+]1(CCOc2ccc(Nc3nc4ccc(-c5cc(O)ccc5Cl)cn4n3)cc2)CCCC1 [Compound 41, 4-Chloro-3-(2-{4-[2-(1-oxy-pyrrolidin-1-yl)-ethoxy]-phenylamino}-[1,2,4]triazolo[1,5-a]pyridin-6-yl)-phenol] | 55
Oc1ccc(Cl)c(-c2ccc3nc(Nc4cncnc4)nn3c2)c1 [compound 3, 4-Chloro-3-[2-(pyrimidin-5-ylamino)-[1,2,4]triazolo[1,5-a]pyridin-6-yl]-phenol] | 150
Oc1ccc(Cl)c(-c2ccc3nc(Nc4cccnc4)nn3c2)c1 [compound 2, 4-Chloro-3-[2-(pyridin-3-ylamino)-[1,2,4]triazolo[1,5-a]pyridin-6-yl]-phenol] | 120
O=C1CCCN1CCOc1ccc(Nc2nc3ccc(-c4cc(O)ccc4Cl)cn3n2)cn1 [Compound 44, 1-(2-{5-[6-(2-Chloro-5-hydroxy-phenyl)-[1,2,4]triazolo[1,5-a]pyridin-2-ylamino]-pyridin-2-yloxy}-ethyl)-pyrrolidin-2-one] | 57
COc1cc(Nc2nc3ccc(-c4cc(O)ccc4Cl)cn3n2)cc(OC)c1OC [Compound 29, 4-Chloro-3-[2-(3,4,5-trimethoxy-phenylamino)-[1,2,4]triazolo[1,5-a]pyridin-6-yl]-phenol] | 2
Oc1ccc(Cl)c(-c2ccc3nc(Nc4ccncc4)nn3c2)c1 [compound 1, 4-Chloro-3-[2-(pyridin-4-ylamino)-[1,2,4]triazolo[1,5-a]pyridin-6-yl]-phenol] | 73
COc1ccc(Nc2ncc3cc(-c4cc(O)ccc4Cl)ccc3n2)cn1 [Compound 40, 4-Chloro-3-[2-(6-methoxy-pyridin-3-ylamino)-quinazolin-6-yl]-phenol] | 10
Oc1ccc(Cl)c(-c2ccc3nc(Nc4ccnc(O)c4)nn3c2)c1 [Compound 19, 4-[6-(2-Chloro-5-hydroxy-phenyl)-[1,2,4]triazolo[1,5-a]pyridin-2-ylamino]-pyridin-2-ol] | 28
COc1ccc(Nc2nc3ccc(-c4cc(O)ccc4Cl)cn3n2)cn1 [compound 7, 4-Chloro-3-[2-(6-methoxy-pyridin-3-ylamino)-[1,2,4]triazolo[1,5-a]pyridin-6-yl]-phenol] | 80
